Consider four molecules from PubChem BioAssay (NCI).

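Assay format: 96-well plates, 48-hour exposure. TGI: concentration producing complete growth inhibition.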

Some test systems named below: 786-0 renal; ACHN renal; BT-549 breast; HL-60(TB) leukemia; IGROV1 ovarian; LOX IMVI melanoma; MDA-N; SF-539 CNS; SK-MEL-28 melanoma; T-47D breast; TK-10 renal; UACC-62 melanoma.
Holding throughout (assay): inhibition of tumour cell growth, NCI panel, 48 h

For the molecule `O=c1c2ccccc2[nH]c(=S)n1-c1ccc(N=Nc2cccc3c(O)cccc23)cc1`, the TGI in the assay with 786-0 renal, with ACHN renal, in the assay on BT-549 breast, in the assay on HL-60(TB) leukemia, in the assay with IGROV1 ovarian and in the assay with LOX IMVI melanoma was more than 100 µM in each case. The TGI is more than 100 µM in the assay with MDA-N; more than 100 µM in the assay on SF-539 CNS; more than 100 µM with SK-MEL-28 melanoma; more than 100 µM in the assay on T-47D breast; more than 100 µM with TK-10 renal; 68 µM with UACC-62 melanoma.

`CCOC(=O)c1cc2c([N+](=O)[O-])c(NC(C)=O)ccc2s1`: the TGI in the assay with 786-0 renal, in the assay with ACHN renal, in the assay with BT-549 breast, with HL-60(TB) leukemia, with IGROV1 ovarian and in the assay with LOX IMVI melanoma was more than 100 µM each time. Besides, the TGI in the assay with MDA-N was more than 100 µM; in the assay with SF-539 CNS, more than 100 µM; in the assay on SK-MEL-28 melanoma, more than 100 µM; with T-47D breast it was 61.2 µM; in the assay on TK-10 renal, more than 100 µM; with UACC-62 melanoma, more than 100 µM.

Regarding `COc1ccc(Nc2c(C#N)c3n(c4ccccc24)c2ccccc2[n+]3C)cc1OC`, the TGI in the assay with 786-0 renal was 8.77 µM; with ACHN renal it was 7.86 µM; with BT-549 breast, 42.6 µM; in the assay with HL-60(TB) leukemia, more than 100 µM; in the assay on IGROV1 ovarian, 17.8 µM; in the assay on LOX IMVI melanoma, 7.23 µM. For the same molecule, the TGI was 7.21 µM in the assay with MDA-N; 6.88 µM in the assay on SF-539 CNS; 17.9 µM in the assay on SK-MEL-28 melanoma; more than 36.9 µM in the assay on T-47D breast; 12.4 µM in the assay on TK-10 renal; 12.5 µM with UACC-62 melanoma.

For `CC[C@@H]1CC[C@@H]2[C@H](CC[C@]3(C)[C@@H](O)CC[C@@H]23)[C@H]1C(=O)O`, the TGI in the assay on 786-0 renal, in the assay on ACHN renal, in the assay with BT-549 breast, in the assay with HL-60(TB) leukemia, with IGROV1 ovarian and in the assay on LOX IMVI melanoma was more than 100 µM each time. In addition, the TGI in the assay on MDA-N, with SF-539 CNS, with SK-MEL-28 melanoma, in the assay on T-47D breast, with TK-10 renal and in the assay with UACC-62 melanoma was more than 100 µM in each case.
